Source: patent US10800792B2, “Inhibitors of Bruton's tyrosine kinase and method of their use” (JANSSEN PHARMACEUTICA NV, priority 2015, dated 2020)

The molecules below were run against unphosphorylated-BTK kinase domain (UP-BTK), GST-tagged human BTK (389-659aa) (Homo sapiens (Human), UniProt Q06187) (assay: BTK kinase Lanthascreen binding assay). Conditions: Lanthascreen tracer competition, 60 minutes incubation; pIC50 = negative log of the IC50 in molar.
How it was run: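 Compound binding to the unphosphorylated kinase domain was monitored by displacement of a fluorescently labelled tracer in a Lanthascreen format. Potency is given as pIC50, the negative log of the molar IC50.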

unphosphorylated-BTK kinase domain (UP-BTK), GST-tagged human BTK (389-659aa), sequence (Q06187 389-659): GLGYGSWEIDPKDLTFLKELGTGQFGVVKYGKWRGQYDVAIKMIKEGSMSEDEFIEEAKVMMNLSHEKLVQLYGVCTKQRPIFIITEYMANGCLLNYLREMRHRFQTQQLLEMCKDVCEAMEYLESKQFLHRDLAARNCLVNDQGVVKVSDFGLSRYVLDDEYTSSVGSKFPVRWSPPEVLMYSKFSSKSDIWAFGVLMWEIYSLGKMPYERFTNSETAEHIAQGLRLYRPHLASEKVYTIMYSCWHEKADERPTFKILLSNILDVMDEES

Compound | BTK_I_binding pIC50
O=C(N[C@@H]1CCCN(C(=O)/C=C/CO)C1)c1sc2nccc3c2c1NC(=O)N3c1ccc(Oc2ccccc2)cc1 [Example 590, (R,E)-N-(1-(4-Hydroxybut-2-enoyl)piperidin-3-yl)-4-oxo-5-(4-phenoxyphenyl)-4,5-dihydro-3H-1-thia-3,5,8-triazaacenaphthylene-2-carboxamide] | 7.5
C=CC(=O)N1CCC[C@@H](NC(=O)c2sc3nccc4c3c2NC(=O)N4c2ccnc(C3CCC3)c2)C1 [Example 591, (R)—N-(1-Acryloylpiperidin-3-yl)-5-(2-cyclobutylpyridin-4-yl)-4-oxo-4,5-dihydro-3H-1-thia-3,5,8-triazaacenaphthylene-2-carboxamide] | 7.5
N#CN1CCC[C@@H](NC(=O)c2sc3nccc4c3c2NC(=O)N4c2ccc(Oc3ccccc3)cc2)C1 [Example 592, (R)—N-(1-Cyanopiperidin-3-yl)-4-oxo-5-(4-phenoxyphenyl)-4,5-dihydro-3H-1-thia-3,5,8-triazaacenaphthylene-2-carboxamide] | 7.4
COCCC(=O)N1CCC[C@@H](NC(=O)c2sc3nccc4c3c2NC(=O)N4c2ccc(Oc3ccccc3)cc2)C1 [Example 593, (R)—N-(1-(3-Methoxypropanoyl)piperidin-3-yl)-4-oxo-5-(4-phenoxyphenyl)-4,5-dihydro-3H-1-thia-3,5,8-triazaacenaphthylene-2-carboxamide] | 7.2
N#CN1CCC(NC(=O)c2sc3nccc4c3c2NC(=O)N4c2ccc(Oc3ccccc3)cc2)CC1 [Example 594, N-(1-Cyanopiperidin-4-yl)-4-oxo-5-(4-phenoxyphenyl)-4,5-dihydro-3H-1-thia-3,5,8-triazaacenaphthylene-2-carboxamide] | 7.1
Cc1cc(Oc2ccccc2)cnc1N1C(=O)Nc2c(C(=O)N[C@@H]3CCCNC3)sc3nccc1c23 [Example 595, (R)-5-(3-Methyl-5-phenoxypyridin-2-yl)-4-oxo-N-(piperidin-3-yl)-4,5-dihydro-3H-1-thia-3,5,8-triazaacenaphthylene-2-carboxamide] | 7.1
O=C(NC1CCN(C(=O)/C=C/CO)CC1)c1sc2nccc3c2c1NC(=O)N3c1ccc(Oc2ccccc2)cc1 [Example 596, (E)-N-(1-(4-Hydroxybut-2-enoyl)piperidin-4-yl)-4-oxo-5-(4-phenoxyphenyl)-4,5-dihydro-3H-1-thia-3,5,8-triazaacenaphthylene-2-carboxamide] | 6.9
COCCC(=O)N1CCC(NC(=O)c2sc3nccc4c3c2NC(=O)N4c2ccc(Oc3ccccc3)cc2)CC1 [Example 597, N-(1-(3-Methoxypropanoyl)piperidin-4-yl)-4-oxo-5-(4-phenoxyphenyl)-4,5-dihydro-3H-1-thia-3,5,8-triazaacenaphthylene-2-carboxamide] | 6.9
C=CC(=O)N1CCC[C@@H](NC(=O)c2sc3nccc4c3c2NC(=O)N4c2cccc(OC3CCC3)c2)C1 [Example 598] | 6.5
O=C(N[C@@H]1CCNC1)c1sc2nccc3c2c1NC(=O)N3c1cccc(-c2ccccc2)c1 [Example 599, (R)-5-([1,1′-Biphenyl]-3-yl)-4-oxo-N-(pyrrolidin-3-yl)-4,5-dihydro-3H-1-thia-3,5,8-triazaacenaphthylene-2-carboxamide] | 6.5

More lines, now with the values ahead:

BTK_I_binding pIC50 | Compound
6.5 | C=CC(=O)N1CCCC(Nc2sc3nccc4c3c2NC(=O)N4c2ccc(Oc3ccccc3)cc2C)C1 (stereo not drawn) [Example 600, 2-((1-Acryloylpiperidin-3-yl)amino)-5-(2-methyl-4-phenoxyphenyl)-3H-1-thia-3,5,8-triazaacenaphthylen-4(5H)-one]
6.4 | CNCC(=O)N1CC[C@@H](NC(=O)c2sc3nccc4c3c2NC(=O)N4c2cccc(-c3ccccc3)c2)C1 [Example 601, (R)-5-([1,1′-Biphenyl]-3-yl)-N-(1-(2-(methylamino)acetyl)pyrrolidin-3-yl)-4-oxo-4,5-dihydro-3H-1-thia-3,5,8-triazaacenaphthylene-2-carboxamide]
6.4 | O=C(N[C@@H]1CCNC1)c1sc2nccc3c2c1NC(=O)N3c1ccnc(-c2ccccc2)c1 [Example 602, (R)-4-Oxo-5-(2-phenylpyridin-4-yl)-N-(pyrrolidin-3-yl)-4,5-dihydro-3H-1-thia-3,5,8-triazaacenaphthylene-2-carboxamide]
6.3 | O=C(N[C@@H]1CCCNC1)c1sc2nccc3c2c1NC(=O)N3c1cccc(C2CCC2)c1 [Example 603, (R)-5-(3-Cyclobutylphenyl)-4-oxo-N-(piperidin-3-yl)-4,5-dihydro-3H-1-thia-3,5,8-triazaacenaphthylene-2-carboxamide]
6.3 | C=CC(=O)N1CCC[C@@H](NC(=O)c2sc3nccc4c3c2NC(=O)N4c2cccc(-c3ccccc3)n2)C1 [Example 604, (R)—N-(1-Acryloylpiperidin-3-yl)-4-oxo-5-(6-phenylpyridin-2-yl)-4,5-dihydro-3H-1-thia-3,5,8-triazaacenaphthylene-2-carboxamide]
6.2 | C=CC(=O)N1CCC(Nc2sc3nccc4c3c2NC(=O)N4c2ccc(Oc3ccccc3)cc2C)CC1 [Example 606, 2-((1-Acryloylpiperidin-4-yl)amino)-5-(2-methyl-4-phenoxyphenyl)-3H-1-thia-3,5,8-triazaacenaphthylen-4(5H)-one]
6.2 | C=CC(=O)N1CCC[C@@H](NC(=O)c2sc3nccc4c3c2NC(=O)N4c2ccc(C)c(C(F)(F)F)c2)C1 [Example 607, (R)—N-(1-Acryloylpiperidin-3-yl)-5-(4-methyl-3-(trifluoromethyl)phenyl)-4-oxo-4,5-dihydro-3H-1-thia-3,5,8-triazaacenaphthylene-2-carboxamide]
6.2 | Cc1cc(OC(C)C)ccc1N1C(=O)Nc2c(C(=O)N[C@@H]3CCCN(C(=O)/C=C/CN4C[C@@H]5OCCO[C@@H]5C4)C3)sc3nccc1c23 [Example 608, 5-(4-Isopropoxy-2-methylphenyl)-4-oxo-N—((R)-1-((E)-4-((4aR,7aS)-tetrahydro-2H-[1,4]dioxino[2,3-c]pyrrol-6(3H)-yl)but-2-enoyl)piperidin-3-yl)-4,5-dihydro-3H-1-thia-3,5,8-triazaacenaphthylene-2-carboxamide]
6.2 | O=C(N[C@@H]1CCCNC1)c1sc2nccc3c2c1NC(=O)N3c1cc(-c2ccccc2)ccn1 [Example 610, (R)-4-Oxo-5-(4-phenylpyridin-2-yl)-N-(piperidin-3-yl)-4,5-dihydro-3H-1-thia-3,5,8-triazaacenaphthylene-2-carboxamide]
6.1 | C=CC(=O)N1CCC[C@@H](NC(=O)c2sc3nccc4c3c2NC(=O)N4c2ccc(OC3COC3)cc2)C1 [Example 612, (R)—N-(1-Acryloylpiperidin-3-yl)-5-(4-(oxetan-3-yloxy)phenyl)-4-oxo-4,5-dihydro-3H-1-thia-3,5,8-triazaacenaphthylene-2-carboxamide]

Same assay, conditions: Lanthascreen tracer competition, 60 minutes incubation; pIC50 = negative log of the IC50 in molar; read-out: BTK_I_binding pIC50 (converted)

Compound | IC50 [nM]
Cc1cc(OC2CCC2)ccc1N1C(=O)Nc2c(C(=O)N[C@@H]3CCCNC3)sc3nccc1c23 [Example 605, (R)-5-(4-cyclobutoxy-2-methylphenyl)-4-oxo-N-(piperidin-3-yl)-4,5-dihydro-3H-1-thia-3,5,8-triazaacenaphthylene-2-carboxamide] | 501
O=C(N[C@@H]1CCCNC1)c1sc2nccc3c2c1NC(=O)N3c1cccc(OC2CCCC2)c1 [Example 613, (R)-5-(3-(Cyclopentyloxy)phenyl)-4-oxo-N-(piperidin-3-yl)-4,5-dihydro-3H-1-thia-3,5,8-triazaacenaphthylene-2-carboxamide] | 794

Same assay, conditions: unphosphorylated-BTK kinase domain, 50 nM Tracer 236, 60 minutes; pIC50 = negative log of the IC50 in molar

Compound | BTK_I_binding pIC50
C=CC(=O)N1CCC[C@@H](NC(=O)c2sc3nccc4c3c2NC(=O)N4c2ccc(C)c(Cl)c2)C1 [Example 584, (R)—N-(1-Acryloylpiperidin-3-yl)-5-(3-chloro-4-methylphenyl)-4-oxo-4,5-dihydro-3H-1-thia-3,5,8-triazaacenaphthylene-2-carboxamide] | 6.6
O=C(N[C@@H]1CCCNC1)c1sc2nccc3c2c1NC(=O)N3c1ccnc(-c2ccccc2)c1 [Example 585, (R)-4-Oxo-5-(2-phenylpyridin-4-yl)-N-(piperidin-3-yl)-4,5-dihydro-3H-1-thia-3,5,8-triazaacenaphthylene-2-carboxamide] | 6.5
CN1CC[C@@H](NC(=O)c2sc3nccc4c3c2NC(=O)N4c2cccc(-c3ccccc3)c2)C1 [Example 587, (R)-5-([1,1′-Biphenyl]-3-yl)-N-(1-methylpyrrolidin-3-yl)-4-oxo-4,5-dihydro-3H-1-thia-3,5,8-triazaacenaphthylene-2-carboxamide] | 6.5
CO[C@H]1CNC[C@@H]1NC(=O)c1sc2nccc3c2c1NC(=O)N3c1ccc(Oc2ccccc2)cc1 [Example 588, N-((3S,4S)-4-Methoxypyrrolidin-3-yl)-4-oxo-5-(4-phenoxyphenyl)-4,5-dihydro-3H-1-thia-3,5,8-triazaacenaphthylene-2-carboxamide] | 6.4

Same assay, conditions: unphosphorylated-BTK kinase domain, 50 nM Tracer 236, 60 minutes; pIC50 = negative log of the IC50 in molar; read-out: BTK_I_binding pIC50 (converted)

Compound | IC50 [nM]
O=C(N[C@H]1CNC[C@H](O)C1)c1sc2nccc3c2c1NC(=O)N3c1ccc(Oc2ccccc2)cc1 [Example 586, N-((3R,5R)-5-Hydroxypiperidin-3-yl)-4-oxo-5-(4-phenoxyphenyl)-4,5-dihydro-3H-1-thia-3,5,8-triazaacenaphthylene-2-carboxamide] | 251
